Tests used:
Hela cells = assay: Clonogenic survival assay of Hela cells after 4×0.5 Gy irradiation; format: cell-based, human; conditions: 4×0.5 Gy spaced 2 hours, Dbait transfected with Superfect (83 nM or 2 μg)
Protocol: Exponentially growing cells in six-well plates were harvested and incubated with […] of complete DMEM containing a mixture of Dbait molecules and Superfect reagent (Qiagen, Courtaboeuf, France) in a ratio of 10 μl Superfect per μg DNA. After 5 h at 37° C. under standard conditions, the cells were washed with PBS and complete DMEM was added. Where indicated, cells were exposed to irradiation either in one session (10 Gy) 5 h after the beginning of transfection or in four sessions of 0.5 Gy administered with a ^137Cs unit (1 Gy/min) 3, 4, 5 and 6 h after the beginning of transfection and allowed to grow for two weeks. When plasmid integration was measured, 2 μg of plasmid was added to Dbait transfection and puromycin (1.7 μg/ml) was added to the growth medium 48 h after transfection. Plasmid transfection efficiency was estimated by analyzing 10,000 cells for GFP expression on a FACScan flow cytometer (FACSalibur, Beckton-Dickinson, USA).
Upon 8 hours transfection of Dbait molecules in Hela cells and four irradiation with 0.5 Gy fractionated irradiation spaced 2 hours (4×0.5 Gy), performed with γ-rays from a ^137Cs source, a significant reduction of clonogenic survival was observed as compared to untransfected cells. The results are given on FIG. 2.1 wherein Panel A gives the dose-dependence of normalized survival clone number in the presence of Dbait32 (SEQ ID NO: 1) and Dbait32H (SEQ ID NO: 1), and Panel B, the normalized survival clone number in the presence of different Dbait molecules at 83 nM (concentration in culture medium). Cell culture was in MEM supplemented with 10% serum. Superfect (Qiagene) was used as transfection agent according to the manufacturer's instruction.
Clonogenic survival was estimated as the number of treated cells forming colonies on the number of untreated cells.

GMA32 cells = assay: Clonogenicity (clonal survival) assay in GMA32 cells with irradiation or mitotic inhibitors; format: cell-based, Chinese hamster
Protocol: The GMA32 Chinese hamster fibroblast cells permissive of DNA breaks were maintained in MEM medium (Gibco) supplemented with 1 mM sodium pyruvate, 2 mM glutamine, 1×MEM non essential amino acids, 1× penicillin/streptomycin and 10% horse serum. Typically, 2×10^5 to 4×10^5 cells were seeded in medium without antibiotics, in 5 cm diameter Petri dishes 24 hours before the transfection of different Dbait molecules (4.5 μg) with lipofectamine 2000 (LifeTechnologies) as transfection agent (in a 1:3 ratio), according to the manufacturer's instructions. At the end of the transfection the cells were either irradiated (4 Gy) or treated with mitotic inhibitors: nocodazole (200 nM), navelbine (100 nM) or taxol (200 nM).
About 16 hour later the drug was removed and the cells were allowed to recover. Cell irradiation was performed with γ-rays from a ^137Cs source. After a 24 hours recovery, the cells were collected and used either for FACS, western blot analyses or to determine the clonogenicity (survival) and the effect of each treatment.
The effect of radiosensitization and chemosensitization of Dbait molecules in GMA32 cells was evaluated by clonogenicity (clonal survival) assay. For the clonogenicity assay, serial dilutions were made after counting the cells to seed 5 cm Petri dishes with different amounts of cells. The number of cells range from 100-200 (control cells) to 3000 (transfected or/and treated cells). Ten days after, the cells (forming clone) were fixed with 4% paraformaldehyde (20 minutes), then colored with methylene blue (15 minutes), and the number of clone in each plate (in triplicates) was scored.
These drugs are known as potent inhibitors of either polymerization or depolymerization of microtubules. Dbait32 (SEQ ID NO: 1) and Dait32H (SEQ ID NO: 1) were able to enhance to cytotoxic activity of these mitotic inhibitors.

[1] = system: γ-H2AX foci in GMA32 cells; assay: Immunodetection of γ-H2AX DSB foci in GMA32 cells; format: cell-based, Chinese hamster; conditions: GMA32, Dbait with lipofectamine, no irradiation
Protocol: Under the same conditions, the immunodetection of DSB foci of γ-H2AX phosphorylated on serine 139 by γ-H2AX labeling (bright dots or patches in nuclei) was performed in the untreated GMA32 cells, the cells transfected alone, or transfected with different Dbait molecules by lipofectamine. The counterstaining of cell membranes and nuclei were achieved by FITC-DiOC6 and DAPI. Similar effects of Dbait molecules were observed (FIG. 3.2). […] This provides visual evidence that these Dbait molecules can be used for trapping proteins involved in DSB repair via NHEJ pathway.
For immunodetection, the cells were grown on coverslip in 5 cm diameter Petri dishes 24 hours before the transfection with different Dbait molecules. One day after the transfection, FITC-DiOC6 (Molecular probes) was added in the medium 5 minutes at 37° C. (to counterstain the membranes). After 3 washing cycles, the cells were fixated with 4% PFA for 20 minutes.
After additional washing, γ-H2AX phosphorylated on serine 139 (γ-H2AX) was detected with. rabbit anti-γ-H2AX antibody (4411-PC, Trevigen) diluted 1/100 in 1×PBS, 1% BSA. Cells were washed three times with 1×PBS, 0.5%, TritonX-100, then incubated for 1 hour at room temperature with goat anti-rabbit antibodies Alexa 594 (Molecular Probes) diluted 1/100 in 1×PBS, 1% BSA. Cells were visualized by epifluorescence microscopy.

[2] = system: digestive tumors induced in K-Ras^V12G×Apc^1638N transgenic mice; assay: Chemosensitization of digestive tumors in K-Ras^V12G×Apc^1638N transgenic mice; format: in vivo
Source text: An endogenous mouse tumor model was chosen to assess the ability of Dbait molecules to sensitize anticancer chemotherapy. To this end, transgenic mice carrying K-Ras^V12G and Apc^1638N mutations were used. They were obtained by breeding two transgenic mice: one carries K-Ras^V12G mutant under the control of the mouse villin promoter(pVill/K-Ras^V12G) (Janssen et al., 2002), the other contains Apc^1638N mutation in one allele (Fodde et al., 1994). Transgenic mice with pVill/K-Ras^V12G×Apc^1638N mutations developed spontaneous tumors in the digestive tract at the age of about 5 months and died rapidly.
They were treated at the mean age of 12 weeks by a combination of chemotherapy (5FU+CPT11) and of Dbait32H (SEQ ID NO: 1) versus chemotherapy alone, according to the protocol shown in FIG. 5.1 panel A. The protocol includes three treatment cycles.
Each cycle consists of intraperitoneal injection of 0.6 mg 5FU and 0.6 mg CPT11, along with 0.1 mg Dbait32H (SEQ ID NO: 1) by oral administration, three times a week, followed by one week rest.
5FU (5 fluorouracile, Teva) was prepared in 0.9% NaCl solution at the concentration of 50 mg/ml. CPT11/Irinotecan (Campto, Aventis) was prepared in 0.9% NaCl solution at the concentration of 20 mg/ml. The health status and survival of the mice were monitored till the death. […]

For “Dbait32H: hairpin double strand DNA with a stem of 32-bp, hexaethyleneglycol linker, phosphorothioate at the free blunt end (DNA ACGCACGGGTGTTGGGTCGTTTGTTCGGATCT; DNA, backbone not given here; hairpin, hexaethyleneglycol loop, 3-bp phosphorothioate at free blunt end)”, the clonogenic survival (Hela cells) was “significantly reduced clonogenic survival”, the “chemosensitization (clonal survival)” value (GMA32 cells; GMA32, 200 nM nocodazole, 100 nM navelbine (vinorelbine) or 200 nM taxol (paclitaxel)) was “chemosensitization was also observed” and the “radiosensitization (clonal survival)” value (GMA32 cells; GMA32, 4 Gy irradiation) was “radiosensitization to 4 Gy irradiation was observed”. For the same substance, the “γ-H2AX DSB foci (cell response)” value [1] was “effectively trigger similar cell response as if DNA damages were occurred in nuclei”, the median survival ([2]; 0.1 mg Dbait32H oral with 0.6 mg 5FU and 0.6 mg CPT11 i.p., three times a week, three cycles) was 226 days and the “reduction of tumor numbers (macroscopy and histology)” value ([2]; 5FU+CPT11 and Dbait32H (n=8) versus chemotherapy alone (n=7), week 18) was greater than 30%.

Source: patent US7476729B2, “Dbait and uses thereof” (Institut Curie, priority 2003, dated 2009)
